Source: patent US12324807B2, “Combination therapy for PI3K-associated disease or disorder” (Cornell University, priority 2018, dated 2025)

How the values were obtained:
KPC K8484 tumors = assay: KPC K8484 allografts treated with BYL-719 alone or combined: tumor response and survival; type: in vivo, mice
tumor models = assay: drug efficacy of PI3K pathway agents with modulation of glucose metabolism in murine tumor models; type: in vivo, mice
[1] = tested on: PIK3CA+MYC mutant murine breast tumor allografts, ES-278; assay: ES-278 breast tumor allografts with or without keto diet; type: in vivo, mice; settings: combined with ketogenic diet
Text: For solid tumor studies, Nude (genotype) and C57/BL6 mice were purchased at 8 weeks of age from Jackson laboratories (Bar Harbor, ME).

IGF1R/INSR = settings: from Selleck Chem website; read-out: IC50 of primary target; cited from earlier work
AKT1/2/3 = settings: from Selleck Chem website; read-out: IC50 of primary target; cited from earlier work
KPC cells = assay: signaling and proliferation of KPC cells with PI3K inhibitor and insulin; type: cell-based, Mouse
Procedure: To test whether or not these spikes in insulin were stimulating PI3K signaling in the context of PI3K inhibition, KPC cells were treated in vitro with the PI3K inhibitors in the presence or absence of 10 ng/ml insulin, the level observed in the mice within 15-30 min after drug administration (FIG. 1D).
For signaling assays, cells were washed 1× in PBS and placed in starvation media (−FBS) for 6-18 hours depending upon cell line and treated 1 hour prior to harvesting with PI3K inhibitors as indicated alone or in combination with insulin 10 minutes prior to harvesting. Three-dimensional culture and dose response experiments of patient derived organoids were run as previously described. In brief, ˜1000 cells were plated in 10 ul of 1:1 matrigel to culture media in 96 well angiogenesis plates and allowed to solidify for 30 min at 37 degrees before 70 ul of culture media was added. Organoids were then treated in triplicate in a log scale dose response and CellTiter-Glo assay (Promega) was run at 96 hours to determine the IC50 values. Knockdown of insulin receptor was achieved using a doxycycline inducible shRNA strategy. For generation of miR-E shRNAs, 97-mer oligonucleotides were purchased (IDT Ultramers) coding for predicted shRNAs using an siRNA predictional tool Splash RNA (see website at splashrna.mskcc.org/).

[2] = tested on: MDA-MB-468 breast cancer cells; assay: proliferation in minimal growth media with BKM120 and insulin; type: cell-based, Human; settings: insulin 10 ng/ml
[3] = tested on: BT-549 breast cancer cells; assay: as above; type: cell-based, Human; settings: insulin 10 ng/ml
[4] = tested on: PC-3 prostate adenocarcinoma cells; assay: as above; type: cell-based; settings: insulin 10 ng/ml
[5] = tested on: HCT116 PTEN knockout (KO) cells; assay: proliferation with PI3K inhibitors and insulin; type: cell-based, Human; settings: insulin 10 ng/ml in presence of PI3K inhibitors GDC-0032, BYL-719
[6] = tested on: ES272 Pik3ca mutant breast cancer allograft; assay: Pik3ca mutant breast allografts, ketogenic diet, BYL-719 and exogenous insulin; type: in vivo, mice; settings: 0.4 mU insulin 15 minutes after each dose of PI3K inhibitor
Procedure: To further test whether the improved response to PI3K inhibitors while on a ketogenic diet is a consequence of lowering blood insulin levels, the inventors attempted to “rescue” the PI3K reactivation using exogenous insulin. A cohort of the mice bearing Pik3ca mutant breast allografts were treated with the combination of a ketogenic diet and BYL-719, and then given 0.4 mU of insulin 15 minutes after each dose of PI3K inhibitor (FIG. 4B).

KPC allografted tumors = type: in vivo; settings: insulin added to ketogenic diet plus BYL-719
[7] = tested on: syngeneic K8484 KPC allografted tumors; assay: glucose/insulin feedback after single dose of BKM120 in mice with KPC allografts; type: in vivo; settings: pretreatment before a single treatment with BKM120; for insulin released in response to BKM120 (c-peptide): c-peptide after 3 hours; for growth signaling through mTORC1 in the tumor (pS6): tumors harvested at 90 minutes
SGLT-2 = SGLT-2 (Homo sapiens (Human), UniProt P31639); settings: read-out: IC50 of primary target; from Selleck Chem website; cited from earlier work
KPC allografts = KPC allografts treated with BKM120 and OSI-906; type: in vivo, mice; settings: BKM120 combined with OSI-906, vs either drug alone
[8] = tested on: MLL-AF9 driven Acute Myeloid Leukemia; assay: syngeneic model of AML treated with BKM120 and ketogenic diet; type: in vivo, mice; settings: BKM120 with ketogenic diet started before or with BKM120
Procedure: For AML studies, 10-12 weeks old male C57BL/6J mice were used for MLL-AF9 Ds-Red AML study (Approved protocol AC-AAAQ5405). For pre-treatment study with MLL-AF9 Ds-Red cells, keto and Keto/BKM group mice were given a ketogenic diet for 10 days prior to injection with MLL-AF9 Ds-Red cells (2×10^5 per mouse in 200 ul) via lateral tail vein. The day after iv injection, the mice were given 0.5% carboxymethyl cellulose (CMC) as vehicle control or BKM120 (37.5 mg/kg) by oral gavage for two weeks (5 out of 7 days). The mice were euthanized after two-week treatment to check the bone marrow for AML progress. The tumor progress was also monitored via IVIS spectrum machine.
For co-current treatment studies with MLL-AF9 Ds-Red cells, the mice were injected with MLL-AF9 Ds-Red cells (2×10^5 per mouse in 200 ul) via lateral tail vein. The day after iv injection, the mice were given vehicle or BKM120 (37.5 mg/kg) by oral gavage for two weeks. The Keto or Keto/BKM group were changed to a ketogenic diet on the same day. The mice were euthanized after two-week treatment to check the bone marrow for AML progress.
To check if Keto/BKM treatment affects the AML engraftment, Keto and Keto/BKM group mice were given a ketogenic diet for 10 days, then treated with vehicle or BKM120 by oral gavage for two weeks. […]

## Cc1nc(NC(=O)N2CCC[C@H]2C(N)=O)sc1-c1ccnc(C(C)(C)C(F)(F)F)c1 [Apelisib, Alpelisib]
KPC K8484 tumors; BYL-719 combined with metformin, SGLT2i or ketogenic diet, concordant with ability to reduce serum insulin
  response of KPC allografts: enhanced response of KPC allografts
Tumor models
  drug efficacy: improved drug efficacy

## C[C@]1(O)C[C@@H](c2nc(-c3ccc4ccc(-c5ccccc5)nc4c3)c3c(N)nccn32)C1 [Linsitinib]
[1]
  treatment efficacy (tumor volume): significantly improved
IGF1R/INSR
  IC50: 35 nM

## NC1(c2ccc(-c3nc4ccn5c(=O)[nH]nc5c4cc3-c3ccccc3)cc2)CCC1 [MK2206]
AKT1/2/3
  IC50: 8 nM

## insulin
KPC cells; 10 ng/ml insulin in continued presence of PI3K inhibitors
  PI3K signaling (pAKT, pS6): partially rescue PI3K signaling
KPC cells; 10 ng/ml insulin with BKM120 (1 uM)
  cellular proliferation: partial recovery of cellular proliferation
[2]
  growth (proliferation): partially rescued
[3]
  growth (proliferation): partially rescued
[4]
  growth (proliferation): partially rescued
[5]
  proliferation (percent confluence): restore normal proliferation
[6]
  therapeutic benefit of ketogenic diet plus BYL-719: dramatically reduced the therapeutic benefit
KPC allografted tumors
  tumor growth: rescued tumor growth

## Cc1ccc([C@@H]2O[C@H](CO)[C@@H](O)[C@H](O)[C@H]2O)cc1Cc1ccc(-c2ccc(F)cc2)s1 [Conagliflozin, Canagliflozin]
[7]
  PI3K inhibitor-induced elevation in blood glucose (hyperglycemia): decreased the resulting hyperglycemia
  insulin released in response to BKM120 (c-peptide): reduced the total insulin that was released
  growth signaling through mTORC1 in the tumor (pS6): reduced signaling through mTORC1 in the tumor
KPC K8484 tumors; added to treatment with BYL-719, vs BYL-719 alone
  overall survival: increases overall survival

## CN(C)C(=N)NC(=N)N [metformin, Metformin]
[7]
  PI3K inhibitor-induced elevation in blood glucose (hyperglycemia): only minimal impact
  insulin released in response to BKM120 (c-peptide): only minimal impact
  growth signaling through mTORC1 in the tumor (pS6): only minimal impact

## COc1c(OCCCN2CCOCC2)ccc2c1N=C(NC(=O)c1cnc(N)nc1)N1CCN=C21 [Copanilisib, Copanlisib]
Tumor models
  drug efficacy: improved drug efficacy

## CS(=O)(=O)N1CCN(Cc2cc3nc(-c4cccc5[nH]ncc45)nc(N4CCOCC4)c3s2)CC1 [Pictilisib]
Tumor models
  drug efficacy: improved drug efficacy

## Cc1ccc([C@@H]2OC(CO)[C@@H](O)C(O)C2O)cc1Cc1ccc(-c2ccc(F)cc2)s1 (some centres unmarked) [Conagliflozin, Canagliflozin]
SGLT-2
  IC50: 2.2 nM

## Cc1nc(-c2cn3c(n2)-c2ccc(-c4cnn(C(C)(C)C(N)=O)c4)cc2OCC3)n(C(C)C)n1 [Taselisib]
[1]
  treatment efficacy (tumor volume): significantly improved
Tumor models
  drug efficacy: improved drug efficacy

## Cc1c(CN2CCN(C(=O)[C@H](C)O)CC2)sc2c(N3CCOCC3)nc(-c3cnc(N)nc3)nc12 [Apitolisib]
Tumor models
  drug efficacy: improved drug efficacy

## Nc1cc(C(F)(F)F)c(-c2cc(N3CCOCC3)nc(N3CCOCC3)n2)cn1 [Buparlisib]
KPC allografts
  growth of KPC allografts: more effective response on the growth of KPC allografts than either drug alone
[8]
  efficacy (survival): significantly enhanced
Tumor models
  drug efficacy: improved drug efficacy
